ChEMBL document CHEMBL2010742, “Phaeosphaerins A-F, cytotoxic perylenequinones from an endolichenic fungus, Phaeosphaeria sp” (J Nat Prod, 2012)
pIC50: −log10 of the molar value. Activity calls are given as the source filed them. The rule behind the calls is not given here.

What was measured:
[1] = system: PC-3; assay: Cytotoxicity against human PC3 cells after 24 hrs by MTT assay; format: functional, cell-based; conditions: PC-3, 24 h
[2] = system: DU-145; assay: Cytotoxicity against human DU145 cells after 24 hrs by MTT assay; format: functional, cell-based; conditions: DU-145, 24 h
[3] = system: LNCaP; assay: Cytotoxicity against human LNCAP cells after 24 hrs by MTT assay; format: functional, cell-based
[4] = Drug uptake in human MCF7 cell lysosomes at 20 uM after 10 mins by […] staining-based confocal microscopic analysis; format: ADME, Lysosome; conditions: mcf7, 10 min
[5] = system: K562; assay: Cytotoxicity against human K562 cells after 24 hrs by MTT assay; format: functional, cell-based; conditions: K562, 24 h
[6] = system: K562; assay: Cytotoxicity against human K562 cells treated for 4 hrs followed irradiated with […] light for 1000 seconds by MTT assay; format: functional, cell-based; conditions: K562, light or radiation study
[7] = system: K562; assay: Induction of ROS production in human K562 cells at 10 uM after 3 hrs by DCF fluorescence analysis; format: functional, cell-based

SMILES | pIC50 [1] | pIC50 [2] | pIC50 [3] | Drug uptake [4] | pIC50 [5] | pIC50 [6] | Activity [7]
COC1=C2c3c4c5c(c(O)cc(OC)c5c5c(OC)cc(O)c(c35)C1=O)C(=O)[C@@H](OC)[C@@]41C[C@H](C)O[C@]2(O)[C@]1(C)O [PHAEOSPHAERIN D] | 5.01 | 4.69 | 4.60 | – | – | – | –
COc1cccc2c1C(=O)c1c(O)c3c(c(O)c1C2=O)C[C@@](O)(C(=O)CO)C[C@@H]3O[C@H]1C[C@H](N)[C@H](O)[C@H](C)O1 [DOXORUBICIN] | 4.71 | 4.63 | 4.80 | – | – | – | –
COC1=C2c3c4c5c(c(O)cc(OC)c5c5c(OC)cc(O)c(c35)C1=O)C(=O)[C@@H](OC)[C@]4(CC(C)O)[C@@H]2C(C)=O (some centres undefined) [PHAEOSPHAERIN C] | 5.21 | 4.82 | 4.84 | Active | 4.71 | 5.15 | Active
COC1=C2c3c4c5c(c(O)cc(OC)c5c5c(OC)cc(O)c(c35)C1=O)C(=O)[C@@]1(OC)O[C@@H](C)C[C@@]41[C@H]2C(C)=O [PHAEOSPHAERIN A] | 5.23 | 4.97 | 4.97 | – | – | – | –
COC1=C2c3c4c5c(c(O)cc(OC)c5c5c(OC)cc(O)c(c35)C1=O)C(=O)[C@@H](OC)[C@@]41C[C@H](C)O[C@]2(C(C)=O)O1 [PHAEOSPHAERIN F] | 5.26 | 4.78 | 4.93 | – | – | – | –
COC1=C2c3c4c5c(c(O)cc(OC)c5c5c(OC)cc(O)c(c35)C1=O)C(=O)[C@@H](OC)[C@@]41C[C@H](C)O[C@@]21C(C)=O [PHAEOSPHAERIN B] | 5.62 | 5.02 | 5.57 | – | – | – | –
COC1=C2c3c4c5c(c(O)cc(OC)c5c5c(OC)cc(O)c(c35)C1=O)C(=O)[C@H](OC)[C@]41C[C@H](C)O[C@@]2(C(C)=O)O1 [PHAEOSPHAERIN E] | 5.28 | 4.79 | 5.00 | – | – | – | –
COc1c2c3c4c(c(OC)c(=O)c5c(O)cc(OC)c(c6c(OC)cc(O)c(c1=O)c63)c54)[C@@H](C(C)=O)[C@@](C)(O)C2 [HYPOCRELLIN A] | – | – | – | Active | 5.13 | 6.26 | Active
